Assay results: US20240109930A1, “TRIAZOLYL-METHYL SUBSTITUTED ALPHA-D-GALACTOPYRANOSIDE DERIVATIVES” (Idorsia Pharmaceuticals Ltd, priority 2021, published 2024)

How the values were obtained:
human Gal-3 (hGal-3) = human Gal-3 (hGal-3) (Homo sapiens (Human), UniProt P17931); test: Competitive binding assay: biotinylated hGal-3 binding to microplate-adsorbed asialofetuin (ASF); details: IC50 values from several measurements given as geomean
In short: (§1)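 Biotinylated hGal-3 or hGal-1 (preferably cysteine-free Cys→Ser mutant), 300–1000 ng/mL, competes with compound for ASF-coated wells for 3 h at 4 °C. Bound lectin detected with streptavidin-peroxidase (80 ng/mL, 1 h, 4 °C) and ABTS by absorbance; IC50 reported as geomean of several runs.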

human Gal-1 (hGal-1) = human Gal-1 (hGal-1) (Homo sapiens, UniProt P09382, C131S/C17S/C43S/C61S/C89S); test: Competitive binding assay: biotinylated hGal-1 binding to microplate-adsorbed asialofetuin (ASF); details: IC50 values from several measurements given as geomean
In short: as §1

human Gal-3 (hGal-3), sequence (P17931 whole entry): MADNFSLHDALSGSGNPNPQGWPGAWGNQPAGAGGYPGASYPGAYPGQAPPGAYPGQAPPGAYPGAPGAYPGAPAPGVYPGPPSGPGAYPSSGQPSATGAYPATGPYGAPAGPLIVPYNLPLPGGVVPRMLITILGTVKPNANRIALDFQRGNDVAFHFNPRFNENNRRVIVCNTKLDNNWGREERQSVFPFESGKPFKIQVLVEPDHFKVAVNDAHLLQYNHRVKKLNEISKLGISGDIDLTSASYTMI

Row | IC50 (human Gal-3 (hGal-3)) [nM] | IC50 (human Gal-1 (hGal-1)) [nM] | SMILES
1 | 10 | 780 | CO[C@@H]1[C@@H](n2cc(-c3ccc(Cl)c(F)c3F)nn2)[C@@H](O)[C@@H](CO)O[C@@H]1Cc1cn([C@H]2CCOC[C@@H]2F)nn1 [Example 2.1.66.D, (2R,3R,4S,5R,6R)-4-(4-(4-chloro-2,3-difluorophenyl)-1H-1,2,3-triazol-1-yl)-6-((1-((3R,4S)-3-fluorotetrahydro-2H-pyran-4-yl)-1H-1,2,3-triazol-4-yl)methyl)-2-(hydroxymethyl)-5-methoxytetrahydro-2H-pyran-3-ol]
2 | 240 | 11000 | CO[C@@H]1[C@@H](n2cc(-c3ccc(Cl)c(F)c3F)nn2)[C@@H](O)[C@@H](CO)O[C@@H]1Cn1cc(C2CC3(C2)CC(F)(F)C3)nn1 [Ex 2.2.84.]
3 | 20 | 2200 | CO[C@@H]1[C@@H](n2cc(-c3ccc(Br)c(F)c3F)nn2)[C@@H](O)[C@@H](CO)O[C@@H]1Cc1cn(C2(C)CCC2)nn1 [Ex 4.1.13.]
4 | 120 | 7150 | CO[C@@H]1[C@@H](n2cc(-c3ccc(Cl)c(F)c3F)nn2)[C@@H](O)[C@@H](CO)O[C@@H]1Cn1cc([C@H]2C[C@@H](N)C2)nn1 [Ex 2.2.87.]
5 | 60 | 260 | CO[C@@H]1[C@@H](n2cc(-c3ccc(F)c(F)c3F)nn2)[C@@H](O)[C@@H](CO)O[C@@H]1Cc1cn([C@]2(C)C[C@H](O)C2)nn1 [Ex 3.1.19.]
6 | 50 | 280 | CO[C@@H]1[C@@H](n2cc(-c3ccc(F)c(F)c3F)nn2)[C@@H](O)[C@@H](CO)O[C@@H]1Cc1cn(C2(C(F)(F)F)CC2)nn1 [Ex 3.1.54.]
7 | 70 | 4640 | CO[C@@H]1[C@@H](n2cc(-c3ccc(Br)c(F)c3F)nn2)[C@@H](O)[C@@H](CO)O[C@@H]1Cn1cc(C2(CO)CC2)nn1 [Ex 4.2.4.]
8 | 40 | 2460 | CO[C@@H]1[C@@H](n2cc(-c3ccc(C)c(F)c3F)nn2)[C@@H](O)[C@@H](CO)O[C@@H]1Cn1cc(C2(CO)CC2)nn1 [Ex 1.2.4.]
9 | 20 | 1070 | CO[C@@H]1[C@@H](n2cc(-c3ccc(Br)c(F)c3F)nn2)[C@@H](O)[C@@H](CO)O[C@@H]1Cc1cn(C2(C(F)(F)F)COC2)nn1 [Ex 4.1.58.]
